Test results published in patent US20210137992A1, “HYPOXIA-INDUCIBLE FACTOR-2A AS A TARGET IN PREVENTION/TREATMENT OF PARKINSON'S DISEASE” (QIngdao University, priority 2019, published 2021).

Experiments:
HIF-2α [1] = assay: Western blot of HIF-2α protein expression in primary cultured astrocytes; format: cell-based
Protocol: (§1) The astrocytes were inoculated into a six-well plate pre-coated with polylysine at a density of 1.5×10^5/ml. In order to detect the activation of HIF-1α and HIF-2α by 6-OHDA and the corresponding protein expression of DMT1 and FPN1, the cells were divided into groups and treated with drugs. After being treated with 10 μM of 6-OHDA for 24 h, the cells were collected to extract the total protein.
(§2) In order to test the influence of inhibiting the activation of HIF-2α on the protein expression of DMT1 and FPN1 in the astrocytes, the cells were pre-treated with 10 μM of the HIF-2α translation inhibitor for 24 h, and then added with 10 μM of 6-OHDA for co-action for 24 h. Then the total protein was extracted.
(§3) The activation and inhibition of HIF-1α and HIF-2α by 6-OHDA and the corresponding protein expression of DMT1 and FPN1 were detected by Western blots.
(§4) After drug treatment of the cells, the medium was completely blotted up, the cells were washed with pre-chilled PBS for three times, and 100 μl of the cell lysis buffer: RIPA lysis buffer (strong) was added to each well, and the cells were lysed on ice for 0.5 h.
(§5) The concentration of the extracted protein was detected by the BCA protein quantitative kit. The protein was sub-packaged according to 30 μg per serving, brought to the same volume with 0.01M PBS, then added with a 4× loading buffer and mixed well, subjected to a water batch above 95° C. for 5 min to denature the protein, and cryopreserved in the refrigerator at −80° C.
(§6) The corresponding primary antibodies were diluted with 5% skim milk: HIF-1α was diluted at 1:1000, HIF-2α was diluted at 1:1000, DMT1 was diluted at 1:800, FPN1 was diluted at 1:800, β-actin was diluted at 1:10000, and incubated in the shaker at 4° C. overnight. It was rinsed with the 1×TBST buffer for 3 times, each time for 10 min.
(§7) The intensity of bands was subjected to density analysis with the Vision Works LS image acquisition and analysis software.

FPN1 = assay: Western blot of FPN1 protein expression in primary cultured astrocytes; format: cell-based, Wistar suckling rats
Protocol: as §1, §2
(§8) In order to test the influence of inhibiting the activation of HIF-1α on the protein expression of DMT1 and FPN1 in the astrocytes, the cells were pre-treated with 10 μM of Bay87-2243 for 48 h, and then added with 10 μM of 6-OHDA for co-action for 24 h. Then the total protein was extracted.
as §3, §4, §5, §6, §7

DMT1 = assay: Western blot of DMT1 protein expression in primary cultured astrocytes; format: cell-based, Wistar suckling rats
Protocol: as §1, §2, §8, §3, §4, §5, §6, §7

HIF-1α [2] = assay: Western blot of HIF-1α protein expression in primary cultured VM neurons; format: cell-based, Wistar mice; settings: 10 μM 6-OHDA for 24 h, compared to control
Protocol: (§9) In order to detect the activation of HIF-1α and HIF-2α in the VM neurons by 6-OHDA, the cells were divided into groups and treated with drugs. After being treated with 10 μM of 6-OHDA for 24 h, the cells were collected to extract the total protein.
as §4, §5, §6, §7

[3] = system: primary cultured astrocytes; assay: Calcein fluorescence ferrous iron influx (transport-in) assay; format: cell-based, Wistar suckling mice; settings: 1 mM ferrous iron perfusion
Protocol: (§10) The primary-cultured astrocytes were plated at a plating density of 5×10^4/well in a 24-well plate with a polylysine-treated cover slip placed in each well. After the astrocytes were cultured for 48 h, the medium was blotted up, and the cells were rinsed gently with the DMEM/F12 basic medium preheated at 37° C. The cells were then treated in groups with 6 wells in each group, and were continually cultured in a 5% CO2 incubator at 37° C. for 24 h. The medium was blotted up. The cells were rinsed once with HBS preheated at 37° C., added with calcein (0.5 μM), placed in an incubator at 37° C. for 0.5 h for loading, then rinsed with HBS for three times, and then detected.
Calcein-AM was a membrane-permeable non-fluorescent molecule. […] Calcein had high affinity for all of divalent metal ions, and could be combined with various divalent metal ions in the cells and then converted into non-fluorescent substances, which leads to the quenching of the fluorescence. In this experimental system, other divalent metal ions such as Mg^2+ and Ca^2+ were removed, and only a Fe^2+ solution was used for perfusion to ensure that the fluorescence change of intracellular calcein was caused by its binding with Fe^2+. The level of cheatable iron in the cells was estimated by determining the decrease degree of the fluorescence intensity. […]

HIF-2α [4] = assay: Western blot of HIF-2α protein expression in primary cultured VM neurons; format: cell-based, Wistar mice; settings: 10 μM 6-OHDA for 24 h, compared to control
Protocol: as §9, §4, §5, §6, §7

[5] = system: primary cultured astrocytes; assay: Calcein fluorescence iron efflux (transport-out) assay with DFO perfusion; format: cell-based, Wistar suckling rats; settings: 1 mM DFO perfusion
Protocol: as §10
Calcein-AM was a membrane-permeable non-fluorescent molecule. […] Calcein had high affinity for all of divalent metal ions, and could be combined with various divalent metal ions in the cells and then converted into non-fluorescent substances, which leads to the quenching of the fluorescence. […] The level of cheatable iron in the cells was estimated by determining the decrease degree of the fluorescence intensity. The fluorescence intensity of calcein was inversely proportional to the content of free iron in the cells. When the level of iron in the cells was increased, the free iron combined with calcein, the fluorescence was quenched, and thus the fluorescence intensity was decreased, otherwise it was increased. […]

HIF-1α [6] = assay: Western blot of HIF-1α protein expression in primary cultured astrocytes; format: cell-based, Wistar suckling rats
Protocol: as §1, §8, §3, §4, §5, §6, §7

[7] = primary cultured astrocytes, 10 μM 6-OHDA for 24 h, compared with control
[8] = astrocytes, 10 μM 6-OHDA for 24 h, compared with control group
[9] = astrocytes treated with 10 μM BAY 87-2243 alone, compared with control group
[10] = astrocytes, 10 μM BAY 87-2243 pretreatment 48 h then 10 μM 6-OHDA 24 h, compared to 6-OHDA group
[11] = astrocytes treated with 10 μM HIF-2α inhibitor alone, compared to control group
[12] = astrocytes, 10 μM HIF-2α inhibitor pretreatment 24 h then 10 μM 6-OHDA 24 h, compared with 6-OHDA group
[13] = pretreatment with 10 μM HIF-2α inhibitor for 24 h, 10 μM 6-OHDA

NCCc1cc(O)c(O)cc1O [6-OHDA, 6-hydroxydopamine]
expression of HIF-2α (HIF-2α [1]; [7]): increased
expression of FPN1 (FPN1; [8]): increased
expression of DMT1 (DMT1; [8]): increased
protein level of HIF-1α (HIF-1α [2]): remained unchanged
ferrous iron influx (calcein fluorescence quenching) ([3]; cells treated with 10 μM 6-OHDA, compared with controls): more rapid fluorescence quenching
protein level of HIF-2α (HIF-2α [4]): remained unchanged
iron efflux (calcein fluorescence intensity) ([5]; 10 μM 6-OHDA-treated group): marked increase in fluorescence intensity
expression of HIF-1α (HIF-1α [6]; [7]): increased

Cc1cc(-c2nc(-c3ccc(OC(F)(F)F)cc3)no2)nn1Cc1ccnc(N2CCN(C3CC3)CC2)c1 [BAY 87-2243]
expression of FPN1 (FPN1; [9]): remained unchanged
expression of FPN1 (FPN1; [10]): did not change
expression of DMT1 (DMT1; [9]): remained unchanged
expression of DMT1 (DMT1; [10]): did not change
expression of HIF-1α (HIF-1α [6]; [9]): decreased
expression of HIF-1α (HIF-1α [6]; astrocytes, 10 μM BAY 87-2243 pretreatment 48 h then co-treatment with 10 μM 6-OHDA 24 h, compared with 6-OHDA group): decreased

COC(=O)c1sccc1N/N=C(\C#N)S(C)(=O)=O [HIF-2α inhibitor]
expression of HIF-2α (HIF-2α [1]; astrocytes treated with 10 μM HIF-2α inhibitor alone, compared with control group): decreased
expression of HIF-2α (HIF-2α [1]; astrocytes, 10 μM HIF-2α inhibitor pretreatment 24 h then co-treatment with 10 μM 6-OHDA 24 h, compared with 6-OHDA group): decreased
expression of FPN1 (FPN1; [11]): decreased
expression of FPN1 (FPN1; [12]): decreased
expression of DMT1 (DMT1; [11]): decreased
expression of DMT1 (DMT1; [12]): decreased
effect on 6-OHDA-increased ferrous iron influx (calcein fluorescence) [3, 13]: fully blocked
effect on 6-OHDA-caused ferrous iron efflux (calcein fluorescence) [5, 13]: fully blocked
